The results in this text go back to patent US20020015942A1, “Method for cancer screening” (priority 1996, published 2002).

The structures appear in SMILES notation.

The subject of assay [1] is A10 cells. As to the kind of experiment: Frequency of endoapoptotic bodies after incubation with cytochalasin B. The following applies: 48 h, 2 μg/ml in culture medium. The class given is cell-based, Rat.
Assay [2] relates to A10 cells. The procedure: A10 cells were stained with acridine orange at different times after exposure to hydrogen peroxide (0.2 mM) and at least 500 cells were scored at each time interval to obtain the above graph. Lines 1-4 represent the frequency of apoptotic nuclei having characteristic fluorescence patterns.
Acridine orange and DAPI staining: Cells grown on glass coverslips were stained for 3-4 minutes in 100 μg/ml acridine orange (Sigma Chemicals Ltd) dissolved in HBSS; coverslips were rinsed briefly in HBSS and mounted in HBSS [19]. Cells were examined immediately in a Zeiss Axioskop fluorescence microscope equipped with filter #9 and epi-illumination. Double stranded DNA fluoresces green while single-stranded RNA and DNA fluoresce red after staining with acridine orange. In most of the experiments, endoapoptosis was scored by the presence of the endoapoptotic nuclei (mini cells) in very early (bright green fluorescence), mid phase (red fluorescence), late phase (no specific fluorescence) or the presence of a ‘ghost’ with no nuclear matrix, with or without fragmentation of the mini cells.

Assay [3] deals with A10 cells. The following applies: hydrogen peroxide-induced apoptotic cells.
Description: Electron microscopy: For studying endoapoptosis in transformed foci, NIH3T3 cells were grown on Thermanox plastic coverslips and the cells were processed as monolayer by fixation with 2% glutaraldehyde in 0.1 M cacodylate buffer, pH 7.3, overnight at 5° C., and post-fixed with 1% osmium tetroxide acid. Cells were in block stained overnight in 0.5% aqueous uranyl acetate, dehydrated in acetone and embedded in Epon resin. Thin sections were cut, stained with uranyl acetate and lead citrate and viewed in a Philips 300 electron microscope. In some cases the monolayer of cells were scraped with rubber policeman after fixation and pelleted and processed for sectioning as above.
[4] abbreviates: 0.02 mM hydrogen peroxide, acridine orange.

On to `C=C1[C@@H](C)[C@H]2[C@H](Cc3ccccc3)NC(=O)[C@]23OC(=O)/C=C/[C@H](O)CCC[C@@H](C)C/C=C/[C@H]3[C@@H]1O` [cytochalasin B], for which the “effect on frequency of endoapoptotic bodies” value in the assay with A10 cells [1] is “did not reduce the frequency of endoapoptotic bodies”.

Take `OO` [hydrogen peroxide]: the “induction of classic apoptosis” value in the assay with A10 cells [2] (0.02 mM hydrogen peroxide in the culture medium, followed over 24 hours) is on record as “classic apoptosis was induced”. Further, in the assay on A10 cells [2] (setting [4]), the “persistence of red nuclear fluorescence” value lay in the range of 3 to 6 h and the “time after apoptotic death until nuclei displayed red fluorescence” value fell in the range of 2 to 3 h. For the same compound, the “temporal changes in nuclear fluorescence pattern compared with 0.2 mM” value in the assay on A10 cells [2] (0.1 mM hydrogen peroxide, acridine orange) was “induced similar changes with a 24 h delay”. Moreover, in the assay on A10 cells [3], the “nuclear changes in transmission electron microscopy” value was “typical apoptotic changes in the nucleus such as chromatin marginization and condensation”.
